One test concerns the target T1, hAMY3 receptor (Homo sapiens, UniProt O60896+P30988).
T1 sequence (P30988 25-474): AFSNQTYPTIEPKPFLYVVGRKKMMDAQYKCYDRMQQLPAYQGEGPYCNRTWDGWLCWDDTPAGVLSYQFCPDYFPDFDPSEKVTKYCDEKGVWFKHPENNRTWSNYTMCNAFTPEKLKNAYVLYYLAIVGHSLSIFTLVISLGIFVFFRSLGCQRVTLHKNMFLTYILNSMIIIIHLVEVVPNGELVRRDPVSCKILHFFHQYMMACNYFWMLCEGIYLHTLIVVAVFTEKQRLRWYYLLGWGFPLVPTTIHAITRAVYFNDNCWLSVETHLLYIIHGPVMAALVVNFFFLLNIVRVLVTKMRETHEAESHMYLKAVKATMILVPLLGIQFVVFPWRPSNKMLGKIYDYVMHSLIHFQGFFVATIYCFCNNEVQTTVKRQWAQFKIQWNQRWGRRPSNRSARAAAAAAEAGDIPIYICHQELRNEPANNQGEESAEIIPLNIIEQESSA
T1 sequence (O60896 24-148 partner): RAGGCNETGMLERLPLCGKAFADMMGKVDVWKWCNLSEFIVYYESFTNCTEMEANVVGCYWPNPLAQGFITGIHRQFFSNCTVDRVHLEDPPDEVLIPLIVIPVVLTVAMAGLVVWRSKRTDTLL
Put plainly: cAMP assay for in vitro receptor activation, hAMY3-R. It is filed as cell-based. The conditions noted are these: cAMP assay, hAMY3 receptor; read-out: hAMY3R EC50. Summed up: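 Thawed cells from a sub-cloned monoclonal hAMY3-overexpressing line are plated in DPBS containing 0.05% casein and 0.5 mM IBMX. Test compounds are added immediately at graded doses for 30 min at room temperature. Reagents for cAMP detection are then added, and TR-FRET is recorded after one hour.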
Background: cAMP levels reflect the balance of adenylyl cyclase and phosphodiesterase activity.

The next test deals with hAM1 receptor (Homo sapiens, UniProt O60895+Q16602). Put plainly: cAMP assay for in vitro receptor activation, hAM1-R. Format: cell-based. Conditions: cAMP assay, hAM1 receptor; read-out: hAM1R EC50. Summed up:
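Receptor activation, read as cAMP, was assessed in thawed cells of a monoclonal hAM1-overexpressing stable line, plated at 8000 cells/well in DPBS supplemented with 0.05% casein and 0.5 mM IBMX.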

Numbered stars: 1 amine (or outer) side, 2 acyl side, 3 side chain; on linkers, the order of the positions; unused ones are H or OH. Bridge positions count the residues as written; N and C are the ends. Square brackets hold non-standard residues; d marks the D form. Peptide text beside a SMILES is read from it. * marks the point of attachment. C20 diacid = O=C(O)CCCCCCCCCCCCCCCCCCC(=O)*; γGlu = O=C(O)[C@H](CCC(=O)[*:2])N[*:1]; Hyp = O=C(O)[C@@H]1C[C@@H](O)CN1; Trx = NC[C@H]1CC[C@H](C(=O)O)CC1; AEEA = NCCOCCOCC(=O)O

By EC50 is commonly meant the concentration giving half of the maximal effect.

hAM1 receptor, sequence (Q16602 23-461): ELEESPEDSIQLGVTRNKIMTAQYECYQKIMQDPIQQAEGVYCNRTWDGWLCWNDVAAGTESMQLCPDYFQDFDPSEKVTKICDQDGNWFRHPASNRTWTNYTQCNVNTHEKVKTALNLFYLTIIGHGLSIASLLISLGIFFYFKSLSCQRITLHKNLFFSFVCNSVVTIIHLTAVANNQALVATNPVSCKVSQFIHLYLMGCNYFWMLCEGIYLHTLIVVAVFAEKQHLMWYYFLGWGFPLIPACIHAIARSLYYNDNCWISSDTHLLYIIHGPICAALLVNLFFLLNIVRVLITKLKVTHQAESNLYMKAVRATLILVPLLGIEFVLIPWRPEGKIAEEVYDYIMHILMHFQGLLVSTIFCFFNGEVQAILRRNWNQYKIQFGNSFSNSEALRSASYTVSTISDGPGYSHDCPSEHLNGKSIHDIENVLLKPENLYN
hAM1 receptor, sequence (O60895 43-175 partner): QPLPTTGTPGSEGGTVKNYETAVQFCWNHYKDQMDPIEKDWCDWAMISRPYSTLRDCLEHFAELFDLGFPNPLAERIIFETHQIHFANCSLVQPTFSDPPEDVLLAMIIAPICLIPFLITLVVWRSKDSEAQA

With `CC[C@H](C)[C@H](NC(=O)[C@H](CCC(N)=O)NC(=O)[C@H](CCC(=O)O)NC(=O)[C@H](C)NC(=O)[C@H](CC(C)C)NC(=O)[C@H](CCCNC(=N)N)NC(=O)[C@H](CCC(N)=O)NC(=O)[C@@H](NC(=O)[C@@H](NC(=O)[C@@H]1CSSC[C@H](NC(=O)[C@H](CCCCN)NC(=O)CC[C@H](NC(=O)CCCCCCCCCCCCCCCCCCC(=O)O)C(=O)O)C(=O)N[C@@H](CC(N)=O)C(=O)N[C@@H]([C@@H](C)O)C(=O)N[C@@H](C)C(=O)N[C@@H]([C@@H](C)O)C(=O)N1)[C@@H](C)O)C(C)C)C(=O)N[C@@H](Cc1ccc(O)cc1)C(=O)N[C@@H](CCC(N)=O)C(=O)N[C@@H](Cc1ccccc1)C(=O)N[C@H](C(=O)N[C@@H](CC(=O)O)C(=O)N[C@@H](CCCCN)C(=O)N[C@@H](C)C(=O)N[C@@H](CCCCN)C(=O)N[C@@H](CC(=O)O)C(=O)N[C@@H](CC(N)=O)C(=O)N[C@H](C(=O)N[C@@H](C)C(=O)N1CCC[C@H]1C(=O)N1CCC[C@H]1C(=O)N[C@H](C(=O)N[C@@H](CC(N)=O)C(=O)N[C@H](C(=O)NCC(=O)N[C@@H](CO)C(=O)N[C@@H](CC(N)=O)C(=O)NCC(=O)N1C[C@H](O)C[C@H]1C(N)=O)C(C)C)[C@@H](C)O)C(C)C)[C@@H](C)O` [compound 122] ({C20 diacid-γGlu}-KCNTATCTVQRLAEQIYQFTDKAKDNVAPPTNVGSNG[Hyp]-NH2; disulfide 2-7), the EC50 is 0.026 nM on hAMY3 receptor and above 5000 nM at hAM1 receptor.
As for `CC[C@H](C)[C@H](NC(=O)[C@H](CCC(N)=O)NC(=O)[C@H](CCC(=O)O)NC(=O)[C@H](C)NC(=O)[C@H](CC(C)C)NC(=O)[C@H](CCCNC(=N)N)NC(=O)[C@H](CCC(N)=O)NC(=O)[C@@H](NC(=O)[C@@H](NC(=O)[C@@H]1CSSC[C@H](NC(=O)[C@H](CCCCN)NC(=O)COCCOCCNC(=O)COCCOCCNC(=O)CC[C@H](NC(=O)[C@H]2CC[C@H](CNC(=O)CCCCCCCCCCCCCCCCCCC(=O)O)CC2)C(=O)O)C(=O)N[C@@H](CC(N)=O)C(=O)N[C@@H]([C@@H](C)O)C(=O)N[C@@H](C)C(=O)N[C@@H]([C@@H](C)O)C(=O)N1)[C@@H](C)O)C(C)C)C(=O)N[C@@H](Cc1ccc(O)cc1)C(=O)N[C@@H](CCC(N)=O)C(=O)N[C@@H](Cc1ccccc1)C(=O)N[C@H](C(=O)N[C@@H](CC(=O)O)C(=O)N[C@@H](CCCCN)C(=O)N[C@@H](CC(=O)O)C(=O)N[C@@H](CCCCN)C(=O)N[C@@H](CC(=O)O)C(=O)N[C@@H](CC(N)=O)C(=O)N[C@H](C(=O)N[C@@H](C)C(=O)N1CCC[C@H]1C(=O)N1CCC[C@H]1C(=O)N[C@H](C(=O)N[C@@H](CC(N)=O)C(=O)N[C@H](C(=O)NCC(=O)N[C@@H](CO)C(=O)N[C@@H](CC(N)=O)C(=O)NCC(=O)N1C[C@H](O)C[C@H]1C(N)=O)C(C)C)[C@@H](C)O)C(C)C)[C@@H](C)O` [compound 126] ({C20 diacid-Trx-γGlu-AEEA-AEEA}-KCNTATCTVQRLAEQIYQFTDKDKDNVAPPTNVGSNG[Hyp]-NH2; disulfide 2-7), the EC50 on hAMY3 receptor was 0.027 nM; on hAM1 receptor it was above 5000 nM.
As to `CC[C@H](C)[C@H](NC(=O)[C@H](CCCCN)NC(=O)[C@H](CO)NC(=O)[C@H](CCCNC(=N)N)NC(=O)[C@@H]1CCCN1C(=O)[C@H](C)NC(=O)[C@@H](NC(=O)[C@H](CC(N)=O)NC(=O)[C@H](CC(=O)O)NC(=O)[C@H](CCCCN)NC(=O)[C@H](CC(=O)O)NC(=O)[C@H](CCCCN)NC(=O)[C@H](CC(=O)O)NC(=O)[C@@H](NC(=O)[C@H](Cc1ccccc1)NC(=O)[C@H](CCC(N)=O)NC(=O)[C@H](Cc1ccc(O)cc1)NC(=O)[C@@H](NC(=O)[C@H](CCC(N)=O)NC(=O)[C@H](Cc1c[nH]cn1)NC(=O)[C@H](C)NC(=O)[C@H](CC(C)C)NC(=O)[C@H](CCCNC(=N)N)NC(=O)[C@H](CCC(N)=O)NC(=O)[C@@H](NC(=O)[C@@H](NC(=O)[C@@H]1CSSC[C@H](NC(=O)CN)C(=O)N[C@@H](CCCNC(=N)N)C(=O)N[C@@H](Cc2ccccc2)C(=O)NCC(=O)N[C@@H]([C@@H](C)O)C(=O)N1)[C@@H](C)O)C(C)C)[C@@H](C)CC)[C@@H](C)O)C(C)C)C(=O)NCC(=O)N1CCC[C@H]1C(=O)N[C@@H](CCC(N)=O)C(=O)NCC(=O)N1C[C@H](O)C[C@H]1C(N)=O` [compound 127] (H-GCRFGTCTVQRLAHQIYQFTDKDKDNVAPRSKIGPQG[Hyp]-NH2; disulfide 2-7; N-terminus assumed), the 50% effective concentration (EC50) at hAMY3 receptor amounted to 0.028 nM; at hAM1 receptor, 107 nM.
The matching figures for `CC[C@H](C)[C@H](NC(=O)[C@H](C)NC(=O)CNC(=O)[C@H](Cc1ccccc1)NC(=O)[C@H](CC(N)=O)NC(=O)[C@H](CC(N)=O)NC(=O)[C@H](CO)NC(=O)[C@H](CO)NC(=O)[C@H](Cc1c[nH]cn1)NC(=O)[C@@H](NC(=O)[C@H](CC(C)C)NC(=O)[C@H](Cc1ccccc1)NC(=O)[C@H](CC(N)=O)NC(=O)[C@H](C)NC(=O)[C@H](CC(C)C)NC(=O)[C@H](CCCNC(=N)N)NC(=O)[C@H](CCC(N)=O)NC(=O)[C@@H](NC(=O)[C@H](C)NC(=O)[C@@H]1CSSC[C@H](NC(=O)[C@@H](N)CCCCN)C(=O)N[C@@H](CC(N)=O)C(=O)N[C@@H]([C@@H](C)O)C(=O)N[C@@H](C)C(=O)N[C@@H]([C@@H](C)O)C(=O)N1)[C@@H](C)O)C(C)C)C(=O)N[C@@H](C)C(=O)N1CCC[C@H]1C(=O)N[C@@H](CO)C(=O)N[C@H](C(=O)N[C@@H](CCCCN)C(=O)N[C@H](C(=O)NCC(=O)N1CCC[C@H]1C(=O)N[C@@H](CC(N)=O)C(=O)NCC(=O)N[C@@H](Cc1ccc(O)cc1)C(N)=O)[C@@H](C)CC)[C@@H](C)O` [compound 128] (H-KCNTATCATQRLANFLVHSSNNFGAIAPSTKIGPNGY-NH2; disulfide 2-7; N-terminus assumed): 0.028 nM and 130 nM.
On the same counts, the results for `CC[C@H](C)[C@H](NC(=O)[C@H](CCC(N)=O)NC(=O)[C@H](Cc1c[nH]cn1)NC(=O)[C@H](C)NC(=O)[C@H](CC(C)C)NC(=O)[C@H](CCCNC(=N)N)NC(=O)[C@H](CC(=O)O)NC(=O)[C@@H](NC(=O)[C@@H](NC(=O)[C@@H]1CSSC[C@H](NC(=O)[C@H](CCCCN)NC(=O)CC[C@H](NC(=O)CCCCCCCCCCCCCCCCCCC(=O)O)C(=O)O)C(=O)N[C@@H](CC(N)=O)C(=O)N[C@@H]([C@@H](C)O)C(=O)N[C@@H](C)C(=O)N[C@@H]([C@@H](C)O)C(=O)N1)[C@@H](C)O)C(C)C)C(=O)N[C@@H](C)C(=O)N[C@@H](CCC(N)=O)C(=O)N[C@@H](Cc1ccccc1)C(=O)N[C@H](C(=O)N[C@@H](CC(=O)O)C(=O)N[C@@H](CCCCN)C(=O)N[C@@H](CC(=O)O)C(=O)N[C@@H](CCCCN)C(=O)N[C@@H](CC(=O)O)C(=O)N1CCC[C@H]1C(=O)N[C@H](C(=O)N[C@@H](C)C(=O)N1CCC[C@H]1C(=O)N1CCC[C@H]1C(=O)N[C@H](C(=O)N[C@@H](CC(N)=O)C(=O)N[C@H](C(=O)NCC(=O)N[C@@H](CO)C(=O)N[C@@H](CC(N)=O)C(=O)NCC(=O)N1C[C@H](O)C[C@H]1C(N)=O)C(C)C)[C@@H](C)O)C(C)C)[C@@H](C)O` [compound 130] ({C20 diacid-γGlu}-KCNTATCTVDRLAHQIAQFTDKDKDPVAPPTNVGSNG[Hyp]-NH2; disulfide 2-7) are 0.03 nM and above 5000 nM.
